≈ marks a conversion by molar mass, not a printed value.
Legend:
physchem [1] = test: physchem
physchem [2] = test: physchem; remark: listed apart in the source
[3] = Solubility of various drugs: effect of CMC in aqueous HPβCD solutions (Example 1); conditions: 0.25% CMC + 10% HPβCD vs 10% HPβCD
[4] = Effect of PVP on the solubilization of drugs in aqueous HPβCD solutions (Example 7); conditions: with vs without 0.25% PVP
[5] = Effect of polymers on the solubilization of various compounds in aqueous HPβCD solutions (Example 14)
Method: An excess amount of the compound to be tested was added to each solvent and the suspensions which formed were heated in sealed containers to 120° C. The solubility of salicylic acid was determined in acidic (HCl) solution.

[6] = ΔH, ΔS and stability constant (Kc) of drug-HPβCD MS 0.6 complexes, effect of PVP (Example 17); assay type: physicochemical; conditions: for ΔH / ΔS: HPβCD MS 0.6 complex
Method: The effect of polyvinylpyrrolidone (PVP) on the enthalpy (ΔH) and the entropy (ΔS) of the stability constant (Kc) of the drug-cyclodextrin complex was determined.
An excess amount of the drug was added to water containing 0, 0.1, 0.25 or 0.5% (w/v) PVP and various amounts of HPβCD or HPαCD.

physchem [7] = test: physchem; remark: listed apart in the source
physchem [8] = test: physchem; remark: listed apart in the source
[9] = HPβCD with CMC / HPβCD without polymer (S6)
[10] = HPβCD with HPMC / HPβCD without polymer (S8)
[11] = HPβCD with PVP / HPβCD without polymer (S7)

Which results are given for CCOc1ccc2nc(S(N)(=O)=O)sc2c1 [Ethoxyzolamide]?
solubility (physchem [1]; 0.25% cmc + 10% hpbetacd): 1660 µg/mL; solubility (physchem [1]; aqueous 0.25% cmc): 70 µg/mL (≈ 0.271 mM); solubility (physchem [1]; aqueous 10% hpbetacd): 1190 µg/mL (≈ 4.61 mM); solubility (physchem [1]; water): 40 µg/mL (≈ 0.155 mM); solubility at 72 h (physchem [2]; 0.25% pvp, 10% hpβcd): 2720 µg/mL (≈ 10.5 mM); solubility at 72 h (physchem [2]; 10% hpβcd ms 0.7): 1360 µg/mL (≈ 5.26 mM); solubility at 72 h (physchem [2]; aqueous 0.25% pvp): 60 µg/mL (≈ 0.232 mM); solubility at 72 h (physchem [2]; water): 40 µg/mL (≈ 0.155 mM); S4 /S3 [3]: 1.39; S4 /S3 [4]: 2.00

Which solubility at 72 h (physchem [2]; 0.25% pvp, 10% hpβcd) does the source give for COc1cc(Cc2cnc(N)nc2N)cc(OC)c1OC [Trimethoprim] here?
Its solubility at 72 h is 6470 µg/mL (≈ 22.3 mM).

And the solubility at 72 h (physchem [2]; 10% hpβcd ms 0.7)?
The solubility at 72 h was 2830 µg/mL (≈ 9.75 mM).

What about the solubility at 72 h (physchem [2]; aqueous 0.25% pvp) of the same molecule?
The solubility at 72 h was 1350 µg/mL (≈ 4.65 mM).

And the solubility at 72 h (physchem [2]; water)?
The solubility at 72 h was 820 µg/mL (≈ 2.82 mM).

For O=C(O)c1ccccc1O [Salicylic acid], which solubility ([5]; 10% hpβcd acidic hcl solution) is on record?
Its solubility is 3710 µg/mL (≈ 26.9 mM).

What about the solubility ratio [5, 9] of the same molecule?
Its solubility ratio is 1.14.

And the solubility ratio [5, 10]?
The solubility ratio was 1.06.

What about the solubility ratio [5, 11] of the same molecule?
Its solubility ratio is 1.10.

What about the solubility ([5]; acidic hcl, cmc, hpβcd) of the same molecule?
Its solubility is 4230 µg/mL (≈ 30.6 mM).

And the solubility ([5]; hpmc/hpβcd acidic hcl solution)?
Its solubility is 3920 µg/mL (≈ 28.4 mM).

What about the solubility ([5]; pvp/hpβcd acidic hcl solution) of the same molecule?
The solubility was 4070 µg/mL (≈ 29.5 mM).

With C[C@]12C=CC(=O)C=C1CC[C@@H]1[C@@H]2[C@@H](O)C[C@@]2(C)[C@H]1CC[C@]2(O)C(=O)CO [Prednisolone, prednisolone] as the molecule, how does the solubility (physchem [1]; 0.25% cmc + 10% hpbetacd) read?
The solubility was 15300 µg/mL.

And the solubility (physchem [1]; aqueous 0.25% cmc)?
The solubility was 530 µg/mL (≈ 1.47 mM).

What about the solubility (physchem [1]; aqueous 10% hpbetacd) of the same molecule?
Its solubility is 13600 µg/mL (≈ 37.7 mM).

And the solubility (physchem [1]; water)?
The solubility was 380 µg/mL (≈ 1.05 mM).

And the “S4 /S3” value [3]?
The value was 1.13.

What does the source list for COc1ccc(O)c(C(C)(C)C)c1 [Butylated hydroxyanisole]?
S2 solubility ([5]; 0.25% (w/v) CMC): 400 µg/mL; S4 solubility ([5]; 0.25% (w/v) HPMC): 280 µg/mL; S3 solubility ([5]; 0.25% (w/v) PVP): 1240 µg/mL; S6 solubility ([5]; 0.25% CMC and 10% HPβCD MS=0.6 (salicylic acid: acidic HCl solution)): 14300 µg/mL; S8 solubility ([5]; 0.25% HPMC and 10% HPβCD MS=0.6 (salicylic acid: acidic HCl solution)): 15500 µg/mL; S7 solubility ([5]; 0.25% PVP and 10% HPβCD MS=0.6 (salicylic acid: acidic HCl solution)): 15800 µg/mL; S5 solubility ([5]; 10% (w/v) HPβCD MS=0.6 (salicylic acid: acidic HCl solution)): 13900 µg/mL; solubility ratio [5, 9]: 1.03; solubility ratio [5, 10]: 1.12; solubility ratio [5, 11]: 1.14; S1 solubility ([5]; water): 400 µg/mL

For C=C1CC[C@H](O)C/C1=C/C=C1\CCC[C@]2(C)[C@@H]([C@H](C)CCCC(C)C)CC[C@@H]12 [Cholecalciferol], which solubility ([5]; 0.25% hpmc + 10% hpβcd) is on record?
The solubility was 690 µg/mL.

What about the solubility ([5]; 0.25% pvp + 10% hpβcd) of the same molecule?
The solubility was 760 µg/mL.

And the solubility ratio [5, 9]?
The solubility ratio was 1.18.

And the solubility ratio [5, 10]?
Its solubility ratio is 1.14.

What about the solubility ratio [5, 11] of the same molecule?
The solubility ratio was 1.25.

And the solubility ([5]; aqueous 0.25% cmc, 10% hpβcd)?
The solubility was 720 µg/mL (≈ 1.87 mM).

What about the solubility ([5]; aqueous 10% hpβcd) of the same molecule?
The solubility was 610 µg/mL (≈ 1.59 mM).

Which solubility ([5]; 0.25% hpmc + 10% hpβcd) does the source give for CC12CCC(CC1=O)C2(C)C (centres unmarked) [Camphor] here?
The solubility was 13300 µg/mL.

And the solubility ([5]; 0.25% pvp + 10% hpβcd)?
Its solubility is 13700 µg/mL.

And the solubility ([5]; aqueous 0.25% cmc)?
The solubility was 2010 µg/mL (≈ 13.2 mM).

What about the solubility ([5]; aqueous 0.25% cmc, 10% hpβcd) of the same molecule?
The solubility was 13800 µg/mL (≈ 90.6 mM).

What about the solubility ([5]; aqueous 0.25% hpmc) of the same molecule?
The solubility was 1920 µg/mL (≈ 12.6 mM).

And the solubility ([5]; aqueous 0.25% pvp)?
Its solubility is 2200 µg/mL (≈ 14.5 mM).

What about the solubility ([5]; aqueous 10% hpβcd) of the same molecule?
Its solubility is 12700 µg/mL (≈ 83.4 mM).

What about the solubility ([5]; water) of the same molecule?
The solubility was 1840 µg/mL (≈ 12.1 mM).

Which results are given for CC(=O)Nc1nnc(S(N)(=O)=O)s1 [Acetazolamide, acetazolamide]?
ΔH ([6]; PVP 0.00% w/v): -4.4 kcal/mol; ΔS ([6]; PVP 0.00% w/v): -26.0 J mol^-1 K^-1; ΔH ([6]; PVP 0.10% w/v): -6.17 kcal/mol; ΔS ([6]; PVP 0.10% w/v): -49.6 J mol^-1 K^-1; ΔH ([6]; PVP 0.25% w/v): -5.93 kcal/mol; ΔS ([6]; PVP 0.25% w/v): -46.2 J mol^-1 K^-1; ΔH ([6]; PVP 0.50% w/v): -6.17 kcal/mol; ΔS ([6]; PVP 0.50% w/v): -49.8 J mol^-1 K^-1; increase in apparent stability constant ([6]; HPβCD complex, 0.25% PVP (w/v)): 13%; solubility (physchem [1]; 0.25% cmc + 10% hpbetacd): 3110 µg/mL; solubility (physchem [1]; aqueous 0.25% cmc): 840 µg/mL (≈ 3.78 mM); solubility (physchem [1]; aqueous 10% hpbetacd): 2520 µg/mL (≈ 11.3 mM); solubility (physchem [1]; water): 700 µg/mL (≈ 3.15 mM); solubility (physchem [7]; 0.10% cmc, 10% hpβcd): 3600 µg/mL (≈ 16.2 mM); solubility (physchem [7]; 0.25% cmc, 10% hpβcd): 3210 µg/mL (≈ 14.4 mM); solubility (physchem [7]; 0.50% cmc, 10% hpβcd): 3750 µg/mL (≈ 16.9 mM); solubility (physchem [7]; aqueous 10% hpβcd ms=0.9): 2520 µg/mL (≈ 11.3 mM); solubility at 72 h (physchem [2]; 0.25% pvp, 10% hpβcd): 3660 µg/mL (≈ 16.5 mM); solubility at 72 h (physchem [2]; 10% hpβcd ms 0.7): 2800 µg/mL (≈ 12.6 mM); solubility at 72 h (physchem [2]; aqueous 0.25% pvp): 1050 µg/mL (≈ 4.72 mM); solubility at 72 h (physchem [2]; water): 700 µg/mL (≈ 3.15 mM); solubility (physchem [8]; 0.25% cmc in water): 840 µg/mL (≈ 3.78 mM); solubility (physchem [8]; 0.25% cmc, 10% hpbcd): 3110 µg/mL (≈ 14 mM); solubility (physchem [8]; 10% ethanol in water, organic solvent or mixture): 1110 µg/mL (≈ 4.99 mM); solubility (physchem [8]; 10% ethanol, 0.25% cmc, organic solvent or mixture): 750 µg/mL (≈ 3.37 mM); solubility (physchem [8]; 10% ethanol, 10% hpbcd, organic solvent or mixture): 2190 µg/mL (≈ 9.85 mM); solubility (physchem [8]; 10% hpbcd in water): 2520 µg/mL (≈ 11.3 mM); solubility (physchem [8]; ethanol, cmc, hpbcd, organic solvent or mixture): 2500 µg/mL (≈ 11.2 mM); solubility (physchem [8]; water): 700 µg/mL (≈ 3.15 mM)

Which solubility ([5]; 0.25% hpmc + 10% hpβcd) does the source give for CN(C)c1ccc(N=Nc2ccccc2)cc1 [Methylyellow] here?
Its solubility is 250 µg/mL.

What about the solubility ([5]; 0.25% pvp + 10% hpβcd) of the same molecule?
Its solubility is 240 µg/mL.

And the solubility ratio [5, 9]?
Its solubility ratio is 1.04.

And the solubility ratio [5, 10]?
The solubility ratio was 1.09.

What about the solubility ratio [5, 11] of the same molecule?
Its solubility ratio is 1.04.

And the solubility ([5]; aqueous 0.25% cmc)?
The solubility was 0.85 µg/mL (≈ 0.00377 mM).

What about the solubility ([5]; aqueous 0.25% cmc, 10% hpβcd) of the same molecule?
Its solubility is 240 µg/mL (≈ 1.07 mM).

And the solubility ([5]; aqueous 0.25% hpmc)?
The solubility was 0.75 µg/mL (≈ 0.00333 mM).

What about the solubility ([5]; aqueous 0.25% pvp) of the same molecule?
Its solubility is 0.85 µg/mL (≈ 0.00377 mM).

And the solubility ([5]; aqueous 10% hpβcd)?
The solubility was 230 µg/mL (≈ 1.02 mM).

What about the solubility ([5]; water) of the same molecule?
The solubility was 0.64 µg/mL (≈ 0.00284 mM).
